The results in this text go back to patent US12138256B2, “Treatment of cardiopulmonary disorders” (Bayer Aktiengesellschaft, priority 2021, dated 2024).

Data set [1] in a line: Thermal stability of the solid (90° C., 7 days, HPLC peak areas). The class given is physicochemical. As to the method: 0.3 mg of the test compound, e.g. comparative example 11 were solved in 0.1 ml dimethylsulfoxide and 0.4 ml acetonitrile. Then 1.0 ml water was added. For complete dissolution the HPLC vial was shaken and sonicated. This solution was immediately analyzed by HPLC (reference at t0). 0.3 mg of the test compound was weighed into another HPLC vial. The vial was capped and stored for 7 days in a heating block at 90° C.
After this time the vial was decapped and 0.1 ml dimethylsulfoxide and 0.4 ml acetonitrile were added to the stressed compound. Then 1.0 ml water was added. For complete dissolution the HPLC vial was shaken and sonicated. The sample was analyzed by HPLC (sample after 1 week). The peak areas in percentage are used for quantification.

Data set [2] deals with allergen-induced late airway hyperresponsiveness and inflammation in sensitized mice. Kind of data set: Chronic asthma model: ovalbumin sensitized BALB/c mice, airway hyperresponsiveness and BAL (C-3.3). To be noted: for inhibition at 0.1 mg/kg: Mus musculus, dexamethasone 18 h and 1 h before each Ova challenge, comparative example 11 high dose of 100 μg/kg 2 h before. The class given is in vivo, mouse. How it is done:
The study was conducted to investigate whether inhalative treatment with comparative example 11 has a protective effect on the experimentally allergen-induced late airway hyperresponsiveness and inflammation in sensitized mice. Female BALB/c mice were sensitized and boosted with Ovalbumin (Ova) and aluminium hydroxide adjuvant (day 0. 14 and 21) with the exception of the negative control group receiving NaCl. On day 28 and 29. the animals were challenged with Ova aerosol. On day 30, a hyperresponsiveness test followed by bronchoalveolar lavage (BAL) was performed in all animals of all groups. The treatment groups D (10 μg) and E (100 μg) were treated with comparative example 11 inhalationally 2 h before each Ova challenge. Group A and B, the positive and negative control groups, were treated correspondingly with the vehicle. The Ova-sensitized positive control group A should show the full allergic reaction and, in contrast, the sham-sensitized negative control group B should show no allergic response. As a reference group, the animals of group C were treated inhalative with the corticosteroid dexamethasone but—due to its different mechanism of action—18 h and 1 h before each Ova challenge (on day 27, 28 and 29). On day 30, 24 h after Ova challenge in the late allergic phase, lung function—especially RL—was measured in the orotracheally intubated mice and a test on airway hyperresponsiveness was performed (inhalational methacholine provocation in doubling dose steps). […] These inhibitory effects show the successful therapeutic intervention.

For data set [3], the system named is thromboxane analog U46619 induced PAH in minipigs. The experiment in a line: PAH minipig model: comparison with and on top of standard of care (bosentan, sildenafil, riociguat). The class given is in vivo, Göttingen minipig. To be noted: for BP decrease % / PAP decrease %: % change per animal; for effects on PAP and BP: bosentan 1 mg/kg, sildenafil 300 μg/kg/h, riociguat 3 μg/kg/h systemically, comparative example 11 30 and 100 μg/kg inhaled. From the text: Efficacy of inhaled comparative example 11 was compared with systemically applied bosentan, sildenafil and riociguat (see FIG. 53a) in the PAH minipig model. […] Therefore inhaled application of comparative example 11 offers clear benefits as systemic effects are avoided, compared to standard of care.

Data set [4] has as its system isolated Langendorff-perfused rat heart. The experiment in a line: Isolated perfused heart according to Langendorff: perfusion pressure and wash-out score (C-1.2). The conditions noted are these: 100 nmol/l. How it is done:
Male Wistar rats (strain HsdCpb:WU) with a body weight of 200-250 g were anaesthetized with Narcoren® (100 mg/kg). The thorax was opened and the heart was then exposed, excised and connected to a Langendorff apparatus by placing a cannula into the aorta. The heart was perfused retrogradely at 9 ml/min at constant flow with a Krebs-Henseleit buffer solution (gassed with 95% O2 and 5% CO2, pH 7.4, 35° C.; composition in mmol/l: NaCl 118; KCl 3; NaHCO3 22; KH2PO4 1.2; MgSO4 1.2; CaCl2 1.8; Glucose 10; Na pyruvate 2). A pressure transducer registered the perfusion pressure in the perfusion system. The left ventricular pressure (LVP) was measured using a second pressure transducer connected to a water-filled balloon which was inserted into the left ventricle via the left atrium. The end diastolic pressure was initially set to 8 mm Hg by adjusting the volume of the balloon. The hearts were spontaneously beating. The signals from the pressure transducer were amplified, registered by a personal computer (Powerlab Chart software, ADInstruments).
Then the hearts were perfused for a further 120 min without the test substance (wash-out phase). The reversibility of the effect (wash-out score) was calculated as a percentage of the PP recovery after 60 min of washout related to the maximum drop of PP induced by the test compound. The wash-out score obtained in this manner was taken as a measure for the residence time of the test substance at the site of action.

Data set [5] relates to thromboxane analog U46619 induced PAH in minipigs. Kind of data set: Haemodynamics (PAP, BP) in the anesthetized thromboxane challenged PAH minipig after inhaled (nebulized) application (C-2.1). It counts as in vivo, Göttingen minipig. As to the method: Experiments were carried out in anesthetized Göttingen minipigs, anesthetized rats and conscious, telemetrically instrumented dogs. Acute pulmonary hypertension was induced for example by infusion of a thromboxane A2 analogon, by acute hypoxia treatment or hypoxia treatment over a number of weeks and/or by administration of monocrotaline. Test substances were applied via nebulization using the Nebutec® or Aeroneb® Pro nebulizer system, and/or by means of powder and/or solution applicators for experimental intratracheal administration (Liquid MicroSprayer®, Dry Powder Insufflator™, MicroSprayer®, Penn-Century Inc., Wyndmoor, PA, USA) or after solid nebulization inserted into the inspiration arm of the ventilation. Compounds were employed as solids or solutions depending on the molecular structure and the technical possibility depending on the experiment. The haemodynamic signals were recorded and evaluated by means of pressure transducers/amplifiers (Combitransducer B. Braun, Melsungen, Germany or CardioMEMS Inc., Atlanta, GA, USA) and Ponemah® or CardioMems® as data aquisition software. After long-term experiments (for example monocrotaline rat), it is also possible to carry out a histological evaluation.
Healthy Gottingen Minipigs® Ellegaard (Ellegaard, Denmark) of both sexes and having a weight of 2-6 kg were used. The animals were sedated by i.m. administration of about 25 mg/kg ketamine and about 10 mg/kg azaperone. Anaesthesia was initiated by i.v. administration of about 2 mg/kg ketamine and about 0.3 mg/kg midazolam. Maintenance of anaesthesia was by i.v. administration of about 7.5-30 mg/kg/h ketamine and about 1-4 mg/kg/h midazolam (rate of infusion 1-4 ml/kg/h) and about 150 μg/kg/h pancuronium bromide (for example Pancuronium-Actavis). After intubation, the animals were ventilated by the ventilator at a constant respiratory volume (10-12 ml/kg, 35 breaths/min; Avea®, Viasys Healthcare, USA, or Engstrom Carestation, GE Healthcare, Freiburg, Germany) such that an end-tidal CO2 concentration of about 5% was achieved. Ventilation was performed with room air, enriched with about 40% oxygen (normoxia). For the measurement of the haemodynamic parameters such as pulmonary arterial pressure (PAP), blood pressure (BP) and heart rate (HR), catheters were inserted into the carotid artery to measure the blood pressure, and a Swan-Ganz® catheter was introduced in a flow-directed manner via the jugular vein into the pulmonary artery. The haemodynamic signals were recorded and evaluated by means of pressure transducers (Combitransducer, B. Braun, Melsungen, Germany)/amplifiers and Ponemah® as data aquisition software.
After the instruments have been placed into the animals, continuous infusion of a thromboxane A2 analog was initiated to increase the pulmonary arterial pressure. […] D0400, or Cayman Chemical Company, cat. no. 16440), dissolved in physiological saline, were infused to achieve an increase of the mean pulmonary arterial pressure to values of over 25 mmHg. 30 minutes after the start of the infusion, a plateau was reached, and the experiment was started.
The test substances were administered as i.v. infusion or by inhalation. For the preparation of the solution for inhalation, the following procedure was adopted: For an animal having a weight of 4 kg, to prepare the stock solution (300 μg/kg), 1.2 mg of the test compound were weighed out and dissolved in a total volume of 3 ml (1% DMSO, 99% 0.2% strength citric acid solution, 1 N aqueous sodium hydroxide solution to adjust the pH to 8). The solution was then diluted to the concentration employed using 0.2% strength citric acid which had been adjusted to pH 8 beforehand with aqueous sodium hydroxide solution. In each test, 3 ml of the solution of test compound per 4 kg animal were nebulized in the inhalation arm of the respiratory circuit using the Aeroneb® Pro nebulizer system. The mean nebulization time was about 7 min from the start of the nebulization.

Setting [6] is: Sildenafil 300 μg/kg/h systemically applied.
[7] abbreviates: inhaled 3μg/kg, 0 min vs. start inhalation.
Where [8] appears, read: inhaled 3μg/kg, 10 min vs. start inhalation.
[9] abbreviates: inhaled 3μg/kg, 20 min vs. start inhalation.
The mark [10] stands for this setting: inhaled 3μg/kg, 30 min vs. start inhalation.
Setting [11] is: inhaled 3μg/kg, 40 min vs. start inhalation.
[12] abbreviates: inhaled 3μg/kg, 50 min vs. start inhalation.
Where [13] appears, read: inhaled 3μg/kg, 60 min vs. start inhalation.
[14] abbreviates: inhaled 3μg/kg, 70 min vs. start inhalation.
Setting [15] is: inhaled 3μg/kg, 80 min vs. start inhalation.
Where [16] appears, read: inhaled 3μg/kg, 90 min vs. start inhalation.
Where [17] appears, read: inhaled 3μg/kg, −5 min vs. start inhalation.
The mark [18] stands for this setting: Bosentan 1 mg/kg systemically applied.

Molecules are shown by their SMILES. Values joined by “and” are separate entries in the source; they are usually repeats but may differ in a detail not shown here. Identical values can stand only once. Like-named read-outs stand apart in the source and are kept apart here.

In the case of `O=C(O)c1ccc(CCN(CCc2ccccc2OCc2ccc(-c3nc4cc(OC(F)(F)F)ccc4o3)cc2)C2CCCc3nc(C(=O)O)ccc32)cc1` (single isomer, unassigned) [comparative example 9, 5-([2-(4-carboxyphenyl)ethyl]{2-[2-({4-[5-(trifluoromethoxy)-1,3-benzoxazol-2-yl]benzyl}oxy)-phenyl]ethyl}amino)-5,6,7,8-tetrahydroquinoline-2-carboxylic acid], the thermal stability result in data set [1] is recorded as “limited thermal stability”.

For `C[C@@H]1C[C@H]2[C@@H]3CCC4=CC(=O)C=C[C@]4(C)[C@@]3(F)[C@@H](O)C[C@]2(C)[C@@]1(O)C(=O)CO` [dexamethasone, reference compound], the inhibition at 0.1 mg/kg in data set [2] (read-out: inhibition of the airway hyperresponsiveness (ED100)) stood at 89%; in data set [2] (read-out: inhibition of the airway hyperresponsiveness (ED150)), 70%. For the same compound, the “inhibition of the eosinophilic influx” value in data set [2] (dexamethasone inhalative) is 100%.

As for `CCCc1nn(C)c2c(=O)[nH]c(-c3cc(S(=O)(=O)N4CCN(C)CC4)ccc3OCC)nc12` [sildenafil, reference compound], in data set [3] (setting [6]), the BP decrease % was −10.6% and −6.1% and −14.5%; the PAP decrease % is −15.3% and −34.3% and −16.1%. For the same compound, in data set [3], the “effects on PAP and BP” value is “decreases in both PAP and BP”.

Consider `O=C(O)CCCCN(CCc1ccccc1OCc1ccc(CCc2ccccc2)cc1)Cc1ccc(C(=O)O)cc1` [Cinaciguat (comparative example 1)], for which, in data set [4], the “Wash-out score (%) after 60 min” value was found to be 29.5%. In addition, in data set [4] (isolated Langendorff-perfused rat heart), the “Perfusion pressure (%) (timepoint at 20 min) Mean” value is reported as 62.1%. For the same compound, the “Perfusion pressure (%) (timepoint at 90 min) Mean” value in data set [4] (wash-out phase) was 69.3%. In addition, the “% changes in BP vs baseline” value in data set [5] (setting [7]) is 100% and 99%; in data set [5] (setting [8]), 91% and 89%; in data set [5] (setting [9]), 76% and 82%; in data set [5] (setting [10]) it was 74% and 86%; in data set [5] (setting [11]), 73% and 89%; in data set [5] (setting [12]) it was 82% and 94%. Further, the “% changes in BP vs baseline” value in data set [5] (setting [13]) was 88% and 94%; in data set [5] (setting [14]), 100% and 99%; in data set [5] (setting [15]), 103% and 100%; in data set [5] (setting [16]), 105% and 102%; in data set [5] (setting [17]) it was 100%. Also, the “% changes in PAP vs baseline” value is 99% in data set [5] (setting [7]); 101% and 100% in data set [5] (setting [8]); 99% and 98% in data set [5] (setting [9]); 98% in data set [5] (setting [10]); 97% and 98% in data set [5] (setting [11]); 97% and 98% in data set [5] (setting [12]). The “% changes in PAP vs baseline” value is 97% and 99% in data set [5] (setting [13]); 97% and 100% in data set [5] (setting [14]); 95% and 98% in data set [5] (setting [15]); 95% and 99% in data set [5] (setting [16]); 100% in data set [5] (setting [17]); 100% and 101% in data set [5] (inhaled 10 μg/kg, 0 min vs. start inhalation). Also, the “% changes in PAP vs baseline” value in data set [5] (inhaled 10 μg/kg, 10 min vs. start inhalation) was 100%; in data set [5] (inhaled 10 μg/kg, 20 min vs. start inhalation), 96% and 100%; in data set [5] (inhaled 10 μg/kg, 30 min vs. start inhalation), 94% and 100%; in data set [5] (inhaled 10 μg/kg, 40 min vs. start inhalation), 95% and 98%; in data set [5] (inhaled 10 μg/kg, 50 min vs. start inhalation), 94% and 96%; in data set [5] (inhaled 10 μg/kg, 60 min vs. start inhalation), 95% and 94%. The “% changes in PAP vs baseline” value is 93% and 94% in data set [5] (inhaled 10 μg/kg, 70 min vs. start inhalation); 94% and 92% in data set [5] (inhaled 10 μg/kg, 80 min vs. start inhalation); 93% and 89% in data set [5] (inhaled 10 μg/kg, 90 min vs. start inhalation); 100% in data set [5] (inhaled 10 μg/kg, −5 min vs. start inhalation).

As for `COc1ccccc1Oc1c(NS(=O)(=O)c2ccc(C(C)(C)C)cc2)nc(-c2ncccn2)nc1OCCO` [Bosentan, reference compound], in data set [3] (setting [18]), the BP decrease % is −6.7% and −15.0% and −10.3% and −12.7%; the PAP decrease % is −3.7% and 3.9% and −7.7% and −16.0%. Also, the “effects on PAP and BP” value in data set [3] was “decrease in BP with only minor effects on PAP”.

As a reminder, the inhibition is the relative decrease from the control value, in per cent.
